# Patent US10787425B2, “Thiazolidinedione derivative and use thereof” (INDUSTRY-ACADEMIC COOPERATION FOUNDATION CHOSUN UNIVERSITY, priority 2016, dated 2020)
# Assays:
# [1] = target: 15-PGDH (Homo sapiens (Human), UniProt P15428); assay: 15-PGDH inhibitory activity (NADH at 340 nm); assay type: biochemical; settings: concentration inhibiting 50% of 15-PGDH activity; purified 15-PGDH, 21 μM PGE2, 0.25 mM NAD+
# Experimental: The 15-PGDH cDNA plasmid containing the BamHI of the pGEX-2T expression vector and EcoRI restriction enzyme sites was transfected into E. coli BL-21 LysS by using conventional methods used in the art. Then, the transfected cells were cultured in an LB medium (500 ml) containing 50 μg/ml of ampicillin at a temperature of 37° C. and at a rate of 220 rpm until the OD600 reached 0.6. Then, isopropyl beta-D-thiogalactoxide (1 mM) was added and the cells were further cultured at the temperature of 25° C. for 12 hours. The cells were then centrifuged at the gravity of 4,000 g for 30 minutes at a temperature of 4° C. to collect a cell pellet. The cell pellet was dissolved in 20 ml of cell lysis buffer (containing 1×PBS buffer (pH 7.4): 1 mM EDTA and 0.1 mM DTT) and sonicated at a temperature of 4° C. for 14×10 s. The digested cells were centrifuged at the gravity of 4,000 g for 20 minutes at a temperature of 4° C. The supernatant was then slowly loaded onto a glutathione-sepharose 4B column equilibrated at a temperature of 4° C. with cell lysis buffer [containing 1×PBS buffer (pH 7.4), 1 mM EDTA, and 0.1 mM DTT]. Washing was performed thereon by using a dissolution buffer until the OD280 reached 0.005 or less. Then, 15-PGDH was eluted from the glutathione-sepharose 4B column at room temperature for 5 minutes by using an elution buffer [containing 50 mM Tris-HCl (pH 8.0), 10 mM reduced glutathione, 1 mM EDTA, and 0.1 mM DTT). The concentration of the purified enzyme was measured, and the purification level thereof was confirmed by SDS-PAGE.
# That is, the cells were treated with a solution including 50 mM Tris-HCl (pH 7.5), 0.1 mM DTT, 0.25 mM (NAD+), 10 μg of purified 15-PGDH enzyme, 21 μM PGE2. and various concentrations (0.0001 μM to 64 μM) of the derivative compound according to the present disclosure. In this case, the total volume of the solution was 2 ml. Then, the absorbance of the reaction mixture was recorded at the wavelength of 340 nm. To measure the activity of the derivative compounds according to the present disclosure, which is an inhibitor of 15-PGDH, the average value of NADH absorbance at 340 nm at various concentrations was obtained from a standard curve.
# [2] = system: A549 cells; assay: Measurement of PGE2 concentration in A549 cell medium (ELISA); assay type: cell-based, human; settings: for Increment %: PGE2 concentration versus PBS control, 5 μM, 12 hours; for PGE2 concentration: inhibitor 5 μM, medium collected after 12 hours, ELISA
# Experimental: A549 cells were subcultured in RPMI 1640 medium (containing+8% fetal bovine serum (FBS) and antibiotic-antimycotic (AA)) for one week, and then, inoculated in a 6-well plate at 2.5×10^5 cells/mL (5×10^5 cells/well) and cultured for 24 hours in a 5% CO2 incubator at a temperature of 37° C. A549 cells are adenocarcinomic human alveolar basal epithelial cells which are derived from lung tissues. When cells were grown to about 80% confluence, a 15-PGDH inhibitor in 1×PBS buffer was injected at a concentration of 5 μM. To compare the results, the same amount of 1×PBS buffer was injected into a negative control, and, the treated cells were cultured in 5% CO2 incubator. After 12 hours, the medium was collected and the collected medium was assayed to measure PGE2 concentration by using an ELISA Kit (Abcam) according to the manufacturer's instructions. The concentration may be expressed as an exact value by plotting the calibration curve by using the absorbance value after diluting the standard in the medium by concentration.
# 15-PGDH, sequence (P15428 whole entry): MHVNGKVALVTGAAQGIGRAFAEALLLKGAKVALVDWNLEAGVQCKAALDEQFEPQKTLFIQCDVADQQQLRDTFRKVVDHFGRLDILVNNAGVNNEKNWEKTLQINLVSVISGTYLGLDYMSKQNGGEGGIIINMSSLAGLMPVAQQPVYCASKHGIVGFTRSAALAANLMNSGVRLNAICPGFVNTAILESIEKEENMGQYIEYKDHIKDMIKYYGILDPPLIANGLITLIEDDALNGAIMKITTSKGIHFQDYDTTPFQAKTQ
SMILES,IC50 [1] [nM],Increment % [2] [%],PGE2 concentration [2] [pg/mL]
"O=C(CCc1ccccc1)Oc1ccc(/C=C2\SC(=O)NC2=O)cc1Cl [Compound 13, (Z)-2-chloro-4-((2,4-dioxothiazolidin-5-ylidene)methyl)phenyl 3-phenylpropanoate]",41.8,16.39,139.2902
"O=C1NC(=O)/C(=C/c2ccc(OC(=O)C3CC3)cc2)S1 [Compound 61, (Z)-4-((2,4-dioxothiazolidin-5-ylidene)methyl)phenyl cyclopropanecarboxylate]",1410,−99.97,0.04774
"O=C(CC1CCCC1)Oc1ccc(/C=C2\SC(=O)NC2=O)c(Cl)c1 [Compound 94, (Z)-3-chloro-4-((2,4-dioxothiazolidin-5-ylidene)methyl)phenyl 2-cyclopentylacetate]",32.7,97.1474,220.1299
"O=C(CCCC1CCCCC1)Oc1ccc(/C=C2\SC(=O)NC2=O)cc1 [Compound 69, (Z)-4-((2,4-dioxothiazolidin-5-ylidene)methyl)phenyl 4-cyclohexylbutanoate]",26.1,134.45,302.8477
"CCOc1cc(/C=C2\SC(=O)NC2=O)ccc1OC(=O)CC1CCCC1 [Compound 49, (Z)-4-((2,4-dioxothiazolidin-5-ylidene)methyl)-2-ethoxyphenyl 2-cyclopentylacetate]",128,9.34,299.5683
"O=C(Cc1ccccc1)Oc1cccc(/C=C2\SC(=O)NC2=O)c1Cl [Compound 87, (Z)-2-chloro-3-((2,4-dioxothiazolidin-5-ylidene)methyl)phenyl 2-phenylacetate]",105,89.77,399.2994
"O=C(CCCC1CCCCC1)Oc1cccc(/C=C2\SC(=O)NC2=O)c1Cl [Compound 84, (Z)-2-chloro-3-((2,4-dioxothiazolidin-5-ylidene)methyl)phenyl 4-cyclohexylbutanoate]",22.5,16.67,245.488
"O=C(Cc1ccccc1)Oc1ccc(/C=C2\SC(=O)NC2=O)c(Cl)c1 [Compound 102, (Z)-3-chloro-4-((2,4-dioxothiazolidin-5-ylidene)methyl)phenyl 2-phenylacetate]",75.3,99.2022,222.4242
"O=C(CC1CCCCC1)Oc1cccc(/C=C2\SC(=O)NC2=O)c1Cl [Compound 82, (Z)-2-chloro-3-((2,4-dioxothiazolidin-5-ylidene)methyl)phenyl 2-cyclohexylacetate]",32.7,189.97,610.1325
"COc1cc(/C=C2\SC(=O)NC2=O)ccc1OC(=O)c1ccccc1.O=C(O)c1ccccc1 [Compound 41, (Z)-4-((2,4-dioxothiazolidin-5-ylidene)methyl)-2-methoxyphenyl benzoate]",151,−88.34,23.64
"O=C(CCCCC1CCCCC1)Oc1ccc(/C=C2\SC(=O)NC2=O)cc1Cl [Compound 10, (Z)-2-chloro-4-((2,4-dioxothiazolidin-5-ylidene)methyl)phenyl 5-cyclohexylpentanoate]",31.7,89.99,520.1337
"COc1cc(/C=C2\SC(=O)NC2=O)ccc1OC(=O)Cc1ccccc1 [Compound 42, (Z)-4-((2,4-dioxothiazolidin-5-ylidene)methyl)-2-methoxyphenyl 2-phenylacetate]",42.2,97.64,400.7345
"O=C(CCCCC1CCCCC1)Oc1ccc(/C=C2\SC(=O)NC2=O)c(Cl)c1 [Compound 100, (Z)-3-chloro-4-((2,4-dioxothiazolidin-5-ylidene)methyl)phenyl 5-cyclohexylpentanoate]",39.4,−3.7411,107.4803
"COc1cc(/C=C2\SC(=O)NC2=O)ccc1OC(=O)CCc1ccccc1 [Compound 43, (Z)-4-((2,4-dioxothiazolidin-5-ylidene)methyl)-2-methoxyphenyl 3-phenylpropanoate]",28.6,113.27,432.4258
"O=C1NC(=O)/C(=C/c2cccc(OC(=O)C3CCC3)c2Cl)S1 [Compound 77, (Z)-2-chloro-3-((2,4-dioxothiazolidin-5-ylidene)methyl)phenyl cyclobutanecarboxylate]",482,56.54,187.3399
"CCOc1cc(/C=C2\SC(=O)NC2=O)ccc1OC(=O)C1CC1 [Compound 46, (Z)-4-((2,4-dioxothiazolidin-5-ylidene)methyl)-2-ethoxyphenyl cyclopropanecarboxylate]",2170,1.78,278.8555
"CCOc1cc(/C=C2\SC(=O)NC2=O)ccc1OC(=O)Cc1ccccc1 [Compound 57, (Z)-4-((2,4-dioxothiazolidin-5-ylidene)methyl)-2-ethoxyphenyl 2-phenylacetate]",118,−17.46,131.3485
"O=C(CC1CCCC1)Oc1ccc(/C=C2\SC(=O)NC2=O)cc1Cl [Compound 4, (Z)-2-chloro-4-((2,4-dioxothiazolidin-5-ylidene)methyl)phenyl 2-cyclopentylacetate]",78.3,103.32,556.6271
"CCOc1cc(/C=C2\SC(=O)NC2=O)ccc1OC(=O)C1CCC1 [Compound 47, (Z)-4-((2,4-dioxothiazolidin-5-ylidene)methyl)-2-ethoxyphenyl cyclobutanecarboxylate]",1620,−32.43,185.1274
"O=C1NC(=O)/C(=C/c2ccc(OC(=O)C3CCCC3)c(Cl)c2)S1 [Compound 3, (Z)-2-chloro-4-((2,4-dioxothiazolidin-5-ylidene)methyl)phenyl cyclopentanecarboxylate]",196,−30.1,191.3645
"COc1cc(/C=C2\SC(=O)NC2=O)ccc1OC(=O)CCCc1ccccc1 [Compound 44, (Z)-4-((2,4-dioxothiazolidin-5-ylidene)methyl)-2-methoxyphenyl 4-phenylbutanoate]",23.9,299.80,810.6337
"O=C(CCCCc1ccccc1)Oc1ccc(/C=C2\SC(=O)NC2=O)c(Cl)c1 [Compound 105, (Z)-3-chloro-4-((2,4-dioxothiazolidin-5-ylidene)methyl)phenyl 5-phenylpentanoate]",130,89.4598,211.5461
"O=C(Cc1ccccc1)Oc1ccc(/C=C2\SC(=O)NC2=O)cc1Br [Compound 27, (Z)-2-bromo-4-((2,4-dioxothiazolidin-5-ylidene)methyl)phenyl 2-phenylacetate]",40.6,99.65,393.7184
"O=C(CC1CCCCC1)Oc1ccc(/C=C2\SC(=O)NC2=O)cc1Cl [Compound 7, (Z)-2-chloro-4-((2,4-dioxothiazolidin-5-ylidene)methyl)phenyl 2-cyclohexylacetate]",23.8,20.36,329.5084
"O=C1NC(=O)/C(=C/c2cccc(OC(=O)C3CC3)c2Cl)S1 [Compound 76, (Z)-2-chloro-3-((2,4-dioxothiazolidin-5-ylidene)methyl)phenyl cyclopropanecarboxylate]",542,3.34,123.6726
